Results: patent US20220055989A1, “CONDENSED PYRROLES AS NOVEL BROMODOMAIN INHIBITORS” (ALBERT LUDWING UNIVERSITÄT FREIBURG, priority 2018, published 2022)
Like-named read-outs stand apart in the source and are kept apart here.

Experiments:
Type in all cases: binding
BRD4(1) [1] = target: T1, BRD4(1) (Homo sapiens, UniProt O60885); experiment: Isothermal titration calorimetry, dissociation constant KD BRD4(1)
T1 construct: BRD4-BD1 was expressed and purified as described previously; made in house
Method: BRD4-BD1 was expressed and purified as described previously (Filippakopoulos et al, (2012), Cell 149(1): […]) with the exception of the final buffer for crystallization and ITC analysis (20 mM Hepes/NaOH pH 7.5, 150 mM NaCl). Crystals were grown in the presence of 3.5 M Na-Formate (pH 7.5) at a protein concentration of 10 mg/ml and a ligand concentration of 2 mM added directly to the protein prior to crystallization from a 100 mM stock solution in DMSO. Data were collected at 100K using either a Rigaku HF-007 rotating anode X-ray generator equipped with VariMaxHF optics and a Saturn944 CCD detector or a mar345 image plate respectively at λ=1.54179 Å or at the PXI beamline at the Swiss Light Source at λ=1.000 Å with a Pilatus detector. Data processing and reduction was done with iMOSFLM (Leslie AGW PH (2007), Evolving Methods for Macromolecular Crystallography 245, 41.51), POINTLESS, and SCALA (Kabsch W (2010) Xds. Acta crystallographica. Section D, Biological crystallography 66(Pt 2):125-132; Bruker (2008) SADABS, SAINT and XPREP (Bruker AXS Inc., Madison, Wis., USA); Collaborative Computational Project N (1994) The CCP4 suite: programs for protein crystallography, Acta crystallographica, Section D, Biological crystallography 50(Pt 5):760-763), or with XDS, XSCALE, XDSCONV (Evans P (2006), Scaling and assessment of data quality, Acta crystallographica, Section D, Biological crystallography 62(Pt 1):72-82), and XPREP (Evans P R (2011), An introduction to data reduction: space-group determination, scaling and intensity statistics, Acta crystallographica, Section D, Biological crystallography 67(Pt 4):282-292).
Data were obtained in discrete titration experiments with an injection volume of 12 μl per injection. Subsequently, the heats per injection were calculated as integrals and after normalization against the molar concentrations plotted against the molar ratio as implemented in Microcal Origin. Finally, data were fitted according to a single set of sites binding model with
The dissociation constant Kd, is commonly used to describe the affinity between a ligand L and a protein, i.e. how tightly a ligand binds to a particular protein. The dissociation constant has molar units which correspond to the concentration of ligand at which the binding site on a particular protein is half occupied, i.e. the concentration of the ligand at which the concentration of protein with ligand bound equals the concentration of protein with no ligand bound. The smaller the dissociation constant, the higher the affinity between ligand and protein.

BRD2(2) = target: T2, BRD2(2) (Homo sapiens, UniProt P25440); experiment: BROMOscan Kd determination BRD2(2)
T2 construct: T7 phage strains displaying bromodomains were grown in parallel; made in house; host or cells: T7 phage grown in an E. coli host derived from the BL21 strain
T2 sequence (P25440 344-453 limits assumed): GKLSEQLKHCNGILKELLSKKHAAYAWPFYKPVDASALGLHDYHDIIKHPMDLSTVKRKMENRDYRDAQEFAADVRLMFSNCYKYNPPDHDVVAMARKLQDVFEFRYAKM
Method: Bromodomain profiling was carried out on the basis of BROMOscan™. This platform accounted for the indirect determination of the dissociation constants between 19 bromodomains and the compound of formula (13), by binding competition against a reference immobilized ligand. Compounds that bind the bromodomain prevent its binding to the immobilized ligand thus reducing the amount of protein captured. […] Hits are identified by measuring the amount of bromodomain captured in test versus control samples. Bromodomain assays for Kd determination: T7 phage strains displaying bromodomains were grown in parallel in 24-well blocks in an E. coli host derived from the BL21 strain. E. coli were grown to log-phase and infected with T7 phage from a frozen stock (multiplicity of infection=0.4) and incubated with shaking at 32° C. until lysis (90-150 minutes). The lysates were centrifuged (5,000×g) and filtered (0.2 μm) to remove cell debris. […] Kds were determined using an 11-point 3-fold compound dilution series with one DMSO control point. […] The bromodomain concentration in the eluates was measured by qPCR. […] Most Kds were determined using a compound top concentration=10,000 nM. […] Binding Constants (Kds): Binding constants (Kds) were calculated with a standard dose-response curve using the Hill equation: The Hill Slope was set to −1. […]

BRD4(1) [2] = target: T1, BRD4(1); experiment: BROMOscan Kd determination BRD4(1)
Method: (§1) Bromodomain profiling was carried out on the basis of BROMOscan™. This platform accounted for the indirect determination of the dissociation constants between 19 bromodomains and the compound of formula (13), by binding competition against a reference immobilized ligand. Compounds that bind the bromodomain prevent its binding to the immobilized ligand thus reducing the amount of protein captured. […] Hits are identified by measuring the amount of bromodomain captured in test versus control samples. Bromodomain assays for Kd determination: T7 phage strains displaying bromodomains were grown in parallel in 24-well blocks in an E. coli host derived from the BL21 strain. E. coli were grown to log-phase and infected with T7 phage from a frozen stock (multiplicity of infection=0.4) and incubated with shaking at 32° C. until lysis (90-150 minutes). The lysates were centrifuged (5,000×g) and filtered (0.2 μm) to remove cell debris. […] The liganded beads were blocked with excess biotin and washed with blocking buffer (SeaBlock (Pierce), 1% BSA, 0.05% Tween 20, 1 mM DTT) to remove unbound ligand and to reduce non-specific phage binding. […] Test compounds were prepared as 1000× stocks in 100% DMSO. Kds were determined using an 11-point 3-fold compound dilution series with one DMSO control point. All compounds for Kd measurements are distributed by acoustic transfer (non-contact dispensing) in 100% DMSO. The compounds were then diluted directly into the assays such that the final concentration of DMSO was 0.09%. All reactions performed in polypropylene 384-well plates. Each was a final volume of 0.02 ml. […] The bromodomain concentration in the eluates was measured by qPCR. […] All compounds for Kd measurements are distributed by acoustic transfer (non-contact dispensing) in 100% DMSO. The compounds were then diluted directly into the assays such that the final concentration of DMSO was 0.09%. Most Kds were determined using a compound top concentration=10,000 nM. If the initial Kd determined was <0.169 nM (the lowest concentration tested), the measurement was repeated with a serial dilution starting at a lower top concentration. Binding Constants (Kds): Binding constants (Kds) were calculated with a standard dose-response curve using the Hill equation: The Hill Slope was set to −1. Curves were fitted using a non-linear least square fit with the Levenberg-Marquardt algorithm.

BRD7 = target: T3, BRD7 (Homo sapiens, UniProt Q9NPI1); experiment: BROMOscan Kd determination BRD7
T3 construct: T7 phage strains displaying bromodomains were grown; host or cells: T7 phage in E. coli derived from BL21
T3 sequence (Q9NPI1 131-235 limits assumed): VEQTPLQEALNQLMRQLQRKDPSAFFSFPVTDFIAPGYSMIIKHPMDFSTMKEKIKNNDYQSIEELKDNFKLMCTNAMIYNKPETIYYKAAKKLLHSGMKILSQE
Method: as §1

BRD9 = target: T4, BRD9 (Homo sapiens, UniProt Q9H8M2); experiment: BROMOscan Kd determination BRD9
T4 construct: T7 phage strains displaying bromodomains were grown; host or cells: T7 phage in E. coli derived from BL21
T4 sequence (Q9H8M2 136-240 limits assumed): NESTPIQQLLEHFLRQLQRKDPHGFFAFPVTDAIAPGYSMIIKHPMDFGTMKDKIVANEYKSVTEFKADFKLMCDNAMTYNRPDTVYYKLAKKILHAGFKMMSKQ
Method: as §1

BRDT(1) = target: T5, BRDT(1) (Homo sapiens, UniProt Q58F21); experiment: BROMOscan Kd determination BRDT(1)
T5 construct: T7 phage strains displaying bromodomains were grown; host or cells: T7 phage in E. coli derived from BL21
Method: as §1

BRPF1 = target: T6, BRPF1 (Homo sapiens, UniProt P55201); experiment: BROMOscan Kd determination BRPF1
T6 construct: T7 phage strains displaying bromodomains were grown; host or cells: T7 phage in E. coli derived from BL21
T6 sequence (P55201 628-732 limits assumed): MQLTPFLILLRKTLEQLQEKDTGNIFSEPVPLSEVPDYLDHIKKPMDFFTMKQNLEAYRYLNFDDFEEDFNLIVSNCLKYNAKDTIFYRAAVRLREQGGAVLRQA
Method: as §1

BRPF1B = target: T7, BRPF1B (Homo sapiens, UniProt P55201); experiment: Dissociation constant KD BRPF1B
T7 construct: dissociation constants KD for two bromodomains (BRD4(1) and BRPF1B)
T7 sequence (P55201 628-732 limits assumed): T6 sequence (P55201 628-732 limits assumed)

CECR2 = target: T8, CECR2 (Homo sapiens, UniProt Q9BXF3); experiment: BROMOscan Kd determination CECR2
T8 construct: T7 phage strains displaying bromodomains were grown; host or cells: T7 phage in E. coli derived from BL21
T8 sequence (Q9BXF3 434-538 limits assumed): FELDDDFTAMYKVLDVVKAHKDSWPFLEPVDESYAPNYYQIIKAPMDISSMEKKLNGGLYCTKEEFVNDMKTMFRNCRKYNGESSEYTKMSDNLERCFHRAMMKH
Method: as §1

**Q.** What does the source list for `COc1ccc(S(=O)(=O)N2CCOCC2)cc1NC(=O)c1[nH]c(C)c2c1CCCCC2=O` [Compound 13, N-(2-methoxy-5-(morpholinosulfonyl)phenyl)-3-methyl-4-oxo-2,4,5,6,7,8-hexahydrocyclohepta[c]pyrrole-1-carboxamide]?
**A.** Kd (BRD4(1) [1]): 77.8 nM; Kd (BRD2(2)): 290 nM; Kd (BRD4(1) [2]): 60 nM; Kd (BRD7): 85 nM; Kd (BRD9): 67 nM; Kd (BRDT(1)): 670 nM; Kd (BRPF1): 520 nM

**Q.** `Cc1[nH]c(-c2cc(N)ccc2Cl)c2c1C(=O)CCCC2` [Compound 23] was tested. Which Kd (BRPF1B) did it give?
**A.** 166 nM

**Q.** What about the Kd (BRD2(2)) of the same compound?
**A.** 200 nM

**Q.** And the Kd (BRD4(1) [2])?
**A.** 250 nM

**Q.** And the Kd (BRD7)?
**A.** 430 nM

**Q.** And the Kd (BRD9)?
**A.** 67 nM

**Q.** And the Kd (BRDT(1))?
**A.** 240 nM

**Q.** And the Kd (BRPF1)?
**A.** 130 nM

**Q.** And the Kd (CECR2)?
**A.** 970 nM

**Q.** What does the source list for `CCCCc1[nH]c(-c2cc(N)ccc2Cl)c2c1C(=O)CCCC2` [Compound 27, 1-(5-Amino-2-chlorophenyl)-3-butyl-5,6,7,8-tetrahydrocyclohepta[c]pyrrol-4(2H)-one]?
**A.** Kd (BRD4(1) [1]): > 10000 nM; Kd (BRPF1B): > 10000 nM; Kd (BRD4(1) [2]; Table 3 compound 27): > 10000 nM; Kd (BRD7; Table 3 compound 27): > 10000 nM; Kd (BRD9; Table 3 compound 27): 800 nM; Kd (BRDT(1); Table 3 compound 27): > 10000 nM; Kd (BRPF1; Table 3 compound 27): > 10000 nM; Kd (CECR2; Table 3 compound 27): > 10000 nM

**Q.** Which Kd (BRD4(1) [1]) does the source give for `CCCc1[nH]c(-c2cc(N)ccc2Cl)c2c1C(=O)CCCC2` [Compound 26, 1-(5-Amino-2-chlorophenyl)-3-propyl-5,6,7,8-tetrahydrocyclohepta[c]pyrrol-4(2H)-one] here?
**A.** 6900 nM

**Q.** And the Kd (BRPF1B)?
**A.** 7000 nM

**Q.** And the Kd (BRD4(1) [2])?
**A.** 6900 nM

**Q.** And the Kd (BRD7)?
**A.** 1100 nM

**Q.** And the Kd (BRD9)?
**A.** 150 nM

**Q.** And the Kd (BRDT(1))?
**A.** 6100 nM

**Q.** What about the Kd (BRPF1) of the same compound?
**A.** 7000 nM

**Q.** And the Kd (CECR2)?
**A.** > 10000 nM
